The target in the test is T1, Cav3.2 channel (Homo sapiens, UniProt O95180).
T1 construct: expressed in transfected cells; host or cells: HEK-293, tetracycline inducible expression system (Invitrogen)
The test is described as follows: Whole-cell patch clamp of T-type Cav3.2 channel expressed in HEK293 cells. The class given is cell-based. The note with it: for pIC50: Table 1, tested at at least 4 concentrations, read-out: IC50; for inhibition at 1 µM: HEK293, Table 1 primary screening. The protocol: Cav3.1, Cav3.2 or Cav3.3 channels were expressed in human embryonic kidney (HEK)-293 cells using a tetracycline inducible expression system (Invitrogen). Cells were maintained in 25 cm^2 tissue culture flasks at 37° C., 5% CO2, and 100% relative humidity in D-MEM/F12 (Dulbecco's Modified Eagle Medium/Nutrient Mixture F-12; Gibco) supplemented with fetal bovine serum (FBS, 10% v/v), sodium pyruvate (0.5 mM, Gibco), penicillin-streptomycin (100 U/mL, 100 μg/mL) and Geneticin® Selective antibiotic (G418; 0.5 mg/mL). Cells were detached from the flask base using a non-enzymatic cell dissociation solution (Cellstripper, Corning), removed and re-seeded on to poly-D-lysine coated glass coverslips in 35 mm dishes. Cells in dishes were further supplemented with G418 at a final concentration of 1 mg/mL and after 24 hours, expression of Cav3.2 was induced with 1 μg/mL tetracycline. The medium for the HEK-293 cells was composed of D-MEM/F-12 (Dulbecco's Modified Eagle Medium/Nutrient Mixture F-12; Gibco, #11330-032) and 15 mM HEPES buffer, with L-glutamine and pyridoxine hydrochloride. It was supplemented with FBS (Fetal Bovine Serum), P/S (Penicillin/Streptomycin) (Gibco, #15140-122), and sodium pyruvate 100 mM (Gibco, #11360-070). At least 24 hours before the assay, expression of the alpha-2-delta-1 and beta2a subunits of the calcium channel were induced with 1 ug/mL tetracycline.
Whole-cell voltage clamp recordings were performed on rat or mouse DRG neurons within 2 days after acutely dissociation or cultured HEK293 cells expressing T-type channels (encoded by Cav3.1, Cav3.2 or Cav3.3 channels). All experiments were performed at room temperature (around 21° C.). Whole-cell currents were recorded using a MultiClamp 700B amplifier and analyzed offline with pCLAMP10.4 software (Molecular Devices, LLC, Sunnyvale Calif., USA). To record calcium currents in DRG and HEK293 cells, the external solution was composed (in mM) of 115 choline-Cl, 30 TEA-Cl, 2 CaCl2, 10 glucose and 10 HEPES (pH 7.3-7.4 adjusted with TEA-OH; osmolality verified as 295 mOsm/kg). The internal solution was composed (in mM) of 125 CsCl, 10 HEPES (acid), 10 EGTA (ethylene glycol tetraacetic acid), 1 CaCl2, 1 MgCl2, 4 MgATP and 0.3 MgGTP (pH 7.3-7.4 adjusted with CsOH; osmolality verified as 295 mOsm/kg). Since the sodium ions were absent in the external solution, tetrodoctoxin was not needed. Calcium currents were recorded at a holding potential of −100 mV and then depolarized to −30 mV for 100 ms to activate either Cav3.1, Cav3.2, or Cav3.3 expressed in HEK cells. An interpulse interval of 10 seconds allowed the channel recovery from inactivation, and achieved stable current recordings. To record sodium (Na^+) currents in DRG neurons, the external solution used the modified Krebs solution specified above. The internal solution was composed (in mM) of 120 CsF, 10 HEPES, 11 EGTA, 1 CaCl2, 1 MgCl2, 10 TEA-Cl, 4 MgATP and 0.3 MgGTP (pH 7.3-7.4 adjusted with CsOH). […] To record potassium currents in DRG neurons, the external solution used the modified Kreb's solution specified above. The internal solution was composed (in mM) of 65 KCl, 80 KF, 5 KOH, 10 EGTA, 2 MgATP (pH 7.3-7.4 adjusted with KOH). Recording electrodes were fabricated using a P-87 puller (Sutter Instrument Co., Novato, Calif., USA). The tip of resistance was 3-4 MQ in bath and the series resistance was less than 10 MΩ after whole cell configuration. All reagents were purchased from Sigma unless specified otherwise. Test compounds were usually applied via a rapid solution exchange system with 8 fine polyplastic tubings (100 μm, OD) glued in a holder in parallel and located closely to the recorded cells. […]

pIC50: −log10 of the molar value.

T1 sequence (O95180 whole entry): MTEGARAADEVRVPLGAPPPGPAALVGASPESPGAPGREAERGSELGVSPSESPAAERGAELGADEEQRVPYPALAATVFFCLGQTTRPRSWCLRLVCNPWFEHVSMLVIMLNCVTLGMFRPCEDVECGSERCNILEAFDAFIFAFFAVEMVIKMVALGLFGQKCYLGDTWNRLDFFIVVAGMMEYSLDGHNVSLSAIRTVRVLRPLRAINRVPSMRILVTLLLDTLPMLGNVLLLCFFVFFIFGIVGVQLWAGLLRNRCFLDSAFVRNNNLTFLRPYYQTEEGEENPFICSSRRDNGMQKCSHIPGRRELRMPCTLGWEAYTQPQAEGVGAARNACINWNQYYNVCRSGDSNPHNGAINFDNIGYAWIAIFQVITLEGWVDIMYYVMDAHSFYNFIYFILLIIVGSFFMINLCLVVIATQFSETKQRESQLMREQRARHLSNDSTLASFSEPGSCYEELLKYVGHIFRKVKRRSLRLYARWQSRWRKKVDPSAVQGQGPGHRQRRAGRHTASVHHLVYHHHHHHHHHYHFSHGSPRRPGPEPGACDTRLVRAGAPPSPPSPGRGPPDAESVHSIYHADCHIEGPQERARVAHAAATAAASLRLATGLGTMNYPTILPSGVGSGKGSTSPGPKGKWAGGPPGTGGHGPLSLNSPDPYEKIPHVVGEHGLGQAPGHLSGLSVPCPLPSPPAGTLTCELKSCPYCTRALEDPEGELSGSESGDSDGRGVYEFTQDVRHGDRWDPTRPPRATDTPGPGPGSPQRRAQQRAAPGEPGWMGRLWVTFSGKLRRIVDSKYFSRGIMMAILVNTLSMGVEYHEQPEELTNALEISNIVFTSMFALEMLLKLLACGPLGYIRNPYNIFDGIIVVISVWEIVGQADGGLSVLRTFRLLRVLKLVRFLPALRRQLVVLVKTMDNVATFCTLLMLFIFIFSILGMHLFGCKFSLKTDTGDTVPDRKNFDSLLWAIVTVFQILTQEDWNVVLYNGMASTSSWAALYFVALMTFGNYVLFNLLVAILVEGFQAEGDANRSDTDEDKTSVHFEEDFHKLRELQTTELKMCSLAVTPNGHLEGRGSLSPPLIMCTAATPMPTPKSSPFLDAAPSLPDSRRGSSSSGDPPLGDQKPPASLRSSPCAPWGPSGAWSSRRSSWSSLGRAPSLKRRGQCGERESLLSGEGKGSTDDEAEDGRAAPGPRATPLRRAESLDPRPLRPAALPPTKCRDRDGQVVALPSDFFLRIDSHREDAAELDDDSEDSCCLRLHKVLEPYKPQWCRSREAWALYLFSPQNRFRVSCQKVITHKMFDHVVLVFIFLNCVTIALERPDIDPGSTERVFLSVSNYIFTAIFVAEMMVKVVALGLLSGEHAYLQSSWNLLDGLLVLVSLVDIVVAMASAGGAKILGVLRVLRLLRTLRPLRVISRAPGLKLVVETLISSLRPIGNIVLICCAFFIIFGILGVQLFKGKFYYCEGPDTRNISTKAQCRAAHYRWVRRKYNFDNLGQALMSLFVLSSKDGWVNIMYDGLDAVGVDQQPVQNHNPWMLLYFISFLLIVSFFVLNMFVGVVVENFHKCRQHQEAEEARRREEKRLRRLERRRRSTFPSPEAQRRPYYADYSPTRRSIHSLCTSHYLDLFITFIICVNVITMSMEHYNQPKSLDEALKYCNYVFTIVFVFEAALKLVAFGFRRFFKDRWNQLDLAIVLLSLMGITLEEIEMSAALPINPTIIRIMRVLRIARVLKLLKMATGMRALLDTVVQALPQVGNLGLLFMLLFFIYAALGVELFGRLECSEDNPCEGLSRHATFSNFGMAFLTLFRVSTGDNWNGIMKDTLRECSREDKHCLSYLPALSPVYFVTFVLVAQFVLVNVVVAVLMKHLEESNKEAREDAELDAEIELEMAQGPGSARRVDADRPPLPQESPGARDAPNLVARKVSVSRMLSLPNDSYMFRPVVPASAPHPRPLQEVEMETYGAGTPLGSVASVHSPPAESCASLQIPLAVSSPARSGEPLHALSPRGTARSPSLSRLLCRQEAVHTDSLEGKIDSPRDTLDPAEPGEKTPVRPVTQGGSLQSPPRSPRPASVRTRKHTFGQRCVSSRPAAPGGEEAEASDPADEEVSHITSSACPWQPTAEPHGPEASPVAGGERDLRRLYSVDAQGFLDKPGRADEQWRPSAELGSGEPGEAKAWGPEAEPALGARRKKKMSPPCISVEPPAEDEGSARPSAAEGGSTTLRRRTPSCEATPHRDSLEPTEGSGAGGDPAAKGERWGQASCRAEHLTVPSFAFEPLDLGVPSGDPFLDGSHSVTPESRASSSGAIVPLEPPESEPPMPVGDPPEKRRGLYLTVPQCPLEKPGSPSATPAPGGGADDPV

What is called pIC50 is −log10 of the IC50, conventionally taken in molar units. Consider `O=C(NC1CC12CCN(Cc1ccccc1)CC2)c1ccc(Cl)c(Cl)c1` (centres unmarked) [Example 10, N-(6-Benzyl-6-azaspiro[2.5]octan-1-yl)-3,4-dichlorobenzamide], for which the pIC50 was 6.10.
The same measure, in the same setting: for `O=C(NC1CC12CCN(CCc1ccccc1)CC2)c1cc(Cl)cc(Cl)c1` (centres unmarked) [Example 13, 3,5-Dichloro-N-(6-phenethyl-6-azaspiro[2.5]octan-1-yl)benzamide] the value was 7.52; for `O=C(NC1CC12CCN(Cc1ccccc1)CC2)c1cc(Cl)cc(Cl)c1` (centres unmarked) [Example 15, N-(6-Benzyl-6-azaspiro[2.5]octan-1-yl)-3,5-dichlorobenzamide], 7.10.
On the same count and under the same terms, the figure for `CC(C)(C)NC(=O)CN1CCC2(CC1)CC2NC(=O)c1cc(F)cc(C(F)(F)F)c1` (centres unmarked) [Example 18, N-{6-[(tert-Butylcarbamoyl)methyl]-6-azaspiro[2.5]octan-1-yl}-3-fluoro-5-(trifluoromethyl)benzamide] is 6.60.
The term inhibition denotes the percentage by which the read-out fell short of the control. A higher inhibition goes with strong suppression. For `CC(C)(C)CCN1CCC2(CC1)CC2NC(=O)c1ccccc1Cl` (centres unmarked) [Example 20, 2-Chloro-N-(6-(3,3-dimethylbutyl)-6-azaspiro[2.5]octan-1-yl)benzamide], testing at 1 µM gave an inhibition of 37%.
On the same count and under the same terms, for `CC(C)(C)CCN1CCC2(CC1)CC2NC(=O)c1cccc(Cl)c1` (centres unmarked) [Example 21, 3-Chloro-N-(6-(3,3-dimethylbutyl)-6-azaspiro[2.5]octan-1-yl)benzamide] the value was 67%; for `CC(C)(C)CCN1CCC2(CC1)CC2NC(=O)c1ccc(Cl)cc1` (centres unmarked) [Example 22, 4-Chloro-N-(6-(3,3-dimethylbutyl)-6-azaspiro[2.5]octan-1-yl)benzamide], 50%.
Still for that read-out and setting: the figure for `CC(C)(C)CCN1CCC2(CC1)CC2NC(=O)c1ccc(Cl)cc1Cl` (centres unmarked) [Example 23, 2,4-Dichloro-N-(6-(3,3-dimethylbutyl)-6-azaspiro[2.5]octan-1-yl)benzamide] is 69%.
`CC(C)(C)CCN1CCC2(CC1)CC2NC(=O)c1cc(F)cc(C(F)(F)F)c1` (centres unmarked) [Example 24, N-(6-(3,3-Dimethylbutyl)-6-azaspiro[2.5]octan-1-yl)-3-fluoro-5-(trifluoromethyl)benzamide]: the pIC50 is 7.70.
In the case of `CC(C)(C)CCN1CCC2(CC1)CC2NC(=O)c1cc(Br)cc(Br)c1` (centres unmarked) [Example 25, 3,5-Dibromo-N-(6-(3,3-dimethylbutyl)-6-azaspiro[2.5]octan-1-yl)benzamide], the pIC50 was 7.22.
As to `CC(C)(C)CCN1CCC2(CC1)CC2NC(=O)c1cncc(C(F)(F)F)c1` (centres unmarked) [Example 26, N-(6-(3,3-dimethylbutyl)-6-azaspiro[2.5]octan-1-yl)-5-(trifluoromethyl)nicotinamide], the inhibition at 1 µM was determined as 64%.
For `CC(C)(C)CCN1CCC2(CC1)CC2NC(=O)c1ccc(Cl)s1` (centres unmarked) [Example 27, 5-Chloro-N-(6-(3,3-dimethylbutyl)-6-azaspiro[2.5]octan-1-yl)thiophene-2-carboxamide], the pIC50 is 6.26.
As for `CC(C)(C)CCN1CCC2(CC1)CC2NC(=O)c1cccc(C(F)(F)F)c1` (centres unmarked) [Example 29, N-(6-(3,3-Dimethylbutyl)-6-azaspiro[2.5]octan-1-yl)-3-(trifluoromethyl)benzamide], the inhibition at 1 µM is 69%.
Regarding `CC(C)(C)CCN1CCC2(CC1)CC2NC(=O)C12CC3CC(CC(C3)C1)C2` (centres unmarked) [Example 30, N-[6-(3,3-Dimethylbutyl)-6-azaspiro[2.5]octan-1-yl]adamantane-1-carboxamide], the pIC50 is 7.05.
In the case of `CC(C)(C)CCN1CCC2(CC1)CC2NC(=O)Cc1cc(C(F)(F)F)cc(C(F)(F)F)c1` (centres unmarked) [Example 31, 2-(3,5-Bis(trifluoromethyl)phenyl)-N-(6-(3,3-dimethylbutyl)-6-azaspiro[2.5]octan-1-yl)acetamide], the pIC50 was 7.10.
With `Cc1cc(C)cc(C(=O)NC2CC23CCN(CCC(C)(C)C)CC3)c1` (centres unmarked) [Example 32, N-(6-(3,3-Dimethylbutyl)-6-azaspiro[2.5]octan-1-yl)-3,5-dimethylbenzamide], the pIC50 was 6.54.
In turn, `COc1cc(OC)cc(C(=O)NC2CC23CCN(CCC(C)(C)C)CC3)c1` (centres unmarked) [Example 33, N-(6-(3,3-Dimethylbutyl)-6-azaspiro[2.5]octan-1-yl)-3,5-dimethoxybenzamide] showed an inhibition at 1 µM of 63%.
On to `CC(C)(C)CCN1CCC2(CC1)CC2NC(=O)c1cccc(C#N)c1` (centres unmarked) [Example 34, 3-Cyano-N-(6-(3,3-dimethylbutyl)-6-azaspiro[2.5]octan-1-yl)benzamide], for which the pIC50 is 5.85.
Consider `CC(C)NC(=O)CN1CCC2(CC1)CC2NC(=O)c1cc(Cl)cc(Cl)c1` (centres unmarked) [Example 37, 3,5-Dichloro-N-(6-(2-(isopropylamino)-2-oxoethyl)-6-azaspiro[2.5]octan-1-yl)benzamide], for which the pIC50 is 7.30.
On the same count and under the same terms, the figure for `O=C(NC1CC12CCN(CCc1ccc(F)cc1)CC2)c1cc(Cl)cc(Cl)c1` (centres unmarked) [Example 40, 3,5-Dichloro-N-(6-(4-fluorophenethyl)-6-azaspiro[2.5]octan-1-yl)benzamide] is 6.80; for `O=C(NC1CC12CCN(CCc1ccc(Cl)cc1)CC2)c1cc(Cl)cc(Cl)c1` (centres unmarked) [Example 41, 3,5-Dichloro-N-(6-(4-chlorophenethyl)-6-azaspiro[2.5]octan-1-yl)benzamide] it is 6.80.
As to `O=C(NC1CC12CCN(CCc1ccc(C(F)(F)F)cc1)CC2)c1cc(Cl)cc(Cl)c1` (centres unmarked) [Example 43, 3,5-Dichloro-N-(6-(4-(trifluoromethyl)phenethyl)-6-azaspiro[2.5]octan-1-yl)benzamide], the pIC50 was 6.92.
Same read-out and setting: the figure for `O=C(NC1CC12CCN(CCCc1ccccc1)CC2)c1cc(Cl)cc(Cl)c1` (centres unmarked) [Example 45, 3,5-Dichloro-N-(6-(3-phenylpropyl)-6-azaspiro[2.5]octan-1-yl)benzamide] is 7.40; for `O=C(NC1CC12CCN(CC1CCOCC1)CC2)c1cc(Cl)cc(Cl)c1` (centres unmarked) [Example 46, 3,5-Dichloro-N-(6-((tetrahydro-2H-pyran-4-yl)methyl)-6-azaspiro[2.5]octan-1-yl)benzamide] it is 6.82.
The same measure, in the same setting: the figure for `O=C(NC1CC12CCN(CCC1CCOCC1)CC2)c1cc(Cl)cc(Cl)c1` (centres unmarked) [Example 47, 3,5-Dichloro-N-(6-(2-(tetrahydro-2H-pyran-4-yl)ethyl)-6-azaspiro[2.5]octan-1-yl)benzamide] is 6.80; for `O=C(NC1CC12CCN(CCCC1CCOCC1)CC2)c1cc(Cl)cc(Cl)c1` (centres unmarked) [Example 48, 3,5-Dichloro-N-(6-(3-(tetrahydro-2H-pyran-4-yl)propyl)-6-azaspiro[2.5]octan-1-yl)benzamide] it is 6.59; for `CC(C)(C)C(=O)CN1CCC2(CC1)CC2NC(=O)c1cc(Cl)cc(Cl)c1` (centres unmarked) [Example 49, 3,5-Dichloro-N-(6-(3,3-dimethyl-2-oxobutyl)-6-azaspiro[2.5]octan-1-yl)benzamide] it is 6.80.
For `O=C(CN1CCC2(CC1)CC2NC(=O)c1cc(Cl)cc(Cl)c1)c1ccc(C(F)(F)F)cc1` (centres unmarked) [Example 50, 3,5-Dichloro-N-(6-(2-oxo-2-(4-(trifluoromethyl)phenyl)ethyl)-6-azaspiro[2.5]octan-1-yl)benzamide], the pIC50 is 7.10.
`CC(C)(C)CCN1CCC2(CC1)CC2NS(=O)(=O)c1cc(Cl)cc(Cl)c1` (centres unmarked) [Example 51, 3,5-Dichloro-N-(6-(3,3-dimethylbutyl)-6-azaspiro[2.5]octan-1-yl)benzenesulfonamide] gave an inhibition at 1 µM of 47%.

The record behind these values is patent publication US10562857B2 (AFASCI, Inc., priority 2015, dated 2020).
